Laboratory results: patent US6642031B2, “Microorganisms with ability to degrade indole and enzymes therefrom” (Genencor International, Inc., priority 1995, dated 2003)
Values joined by “and” are separate entries in the source; they are usually repeats but may differ in a detail not shown here. Equal values may be shown once. Read-outs that look alike come from different tables or passages of the source.

Experiments:
indole oxidase [1] = assay: Cell-free oxygen uptake in WW2 indole-induced cell extract; format: biochemical, Pseudomonas putida; conditions: for Oxygen Uptake: 1.82 mg/ml cell extract protein, 1 mM NADH, pH 7.5, corrected for uptake without substrate
[2] = system: indole oxidation activity in strain WW2 crude cell extract; assay: Cell-free indole-dependent NAD(P)H oxidation, cofactor requirements (spectrophotometric); format: biochemical, Pseudomonas putida
Method: Spectrophotometric assavs. Cell-free, indole-dependent NADH oxidation was measured spectrophotometrically with a Hewlett-Packard 8452A diode array spectrophotometer. The reactions (1.0 ml volume) contained crude soluble cytosolic fraction (SCF), 3.0 mM NADH, 2.0 mM indole and 50 mM Tris-HCl (pH 7.5). The reactions were initiated by addition of NADH and the initial rates were corrected for background NADH oxidation rates, which were measured in the absence of indole. NADPH was substituted for NADH to compare its ability to serve as an electron donor for indole oxidation activity.
Cofactor requirement of the indole oxidizing activity in the crude soluble cytosolic fraction was investigated in spectrophotometric assays as described in Example 6.

Strain WW2 = assay: Induction and sustaining of indole oxidation activity in growing cultures (oxygen uptake with indole); format: cell-based, Pseudomonas putida; conditions: for Oxygen Uptake Rate, Rate 3 h After Re-Addition: re-addition (indole 0.2 g/l and/or succinate 2 g/l) to 4 h indole-induced cells, measured 7 h after initial induction
Text: Several methods were examined to induce cultures of strain Pseudomonas putida WW2 for indole oxidation during growth. These included growing the strain in MSB containing 0.2% succinate with: (i) a single addition of 0.02% indole and 0.2% succinate during late log phase; (ii) indole provided in the vapor phase, during growth, from a small cloth bag containing indole crystals suspended above the surface of the medium; or (iii) both indole vapor during growth and direct addition of 0.02% indole and 0.2% succinate during late log phase.
(§1) Indole oxidation activity in whole cells was routinely determined by measuring oxygen uptake rates with a Biological Oxygen Monitor (Yellow Springs Instrument Co., model 5300, Ohio) equipped with a Clark electrode. Reactions were carried out in a stirred, 1.5 ml reaction chamber at 25° C. Washed cells of strain WW2 suspended in 50 mM Tris-HCl (pH 7.5) to an A600 of 2.0 were pre-equilibrated at 25° C. before their addition to the reaction chamber. After recording the endogenous oxygen uptake rate, indole or other substrates (100 mM in dimethylformamide) were added to a final concentration of 0.3 to 1 mM. […] Reported rates were corrected for oxygen uptake observed in the absence of substrate. In the case of indoxyl, the reported rate was also corrected for the spontaneous oxygen consumption rate of indoxyl oxidation in the absence of indole-induced cells.

Strain WW2 whole cells = assay: Whole cell oxygen uptake with indole and related substrates (Clark electrode oxygraph); format: cell-based, Pseudomonas putida; conditions: for Relative % (oxygen uptake rate) / Oxygen Uptake: substrate 0.6 mM; for Relative % (oxygen uptake rate): indole-dependent rate defined as 100%; for Oxygen Uptake: whole cells 4.5 h after indole induction, corrected for uptake without substrate
Method: (§2) Carbon utilization of WW2 was determined by its ability to grow on alternate carbon sources. The bulk of these were determined by Biolog assay. […] In addition, substrate-dependent oxygen consumption of whole resting cells was measured by oxygraph assay as described in Example 11.
as §1

[3] = system: Pseudomonas putida strain WW2; assay: Growth on carbon sources in MSB liquid culture or agar plates; conditions: for support of growth as carbon source (words): MSB liquid medium or agar plates
Method: Cultivation of the organism. Growth was measured turbidimetrically at 600 nm. […] Additional potential carbon sources were assessed in MSB supplemented with the carbon alternate source (0.2% (w/v) unless specified otherwise) or on plates provided with volatile substrates in the vapor phase. Growth was also conducted in 14 L fermenters in the fed batch mode. […] To study enzyme activity of indole oxidase, the organism was cultured in 50 or 500 ml of media (in 250 ml or 2.8 L nominal volume flasks, respectively) containing minimal salts, succinate and 0.02% indole at 30° C. with rotary shaking (200 rpm).
as §2

indole oxidase [4] = assay: Substrate depletion assay with cell extract, GC/MS and visible spectrum; format: biochemical, Pseudomonas putida
Method: Substrate depletion assays. Substrate depletion assays were carried out in 1.5 ml to 10 ml reactions containing crude SCF, 4.0 mM NADH or NADPH, 2.0 μM FAD, and 1.0 mM indole in 50 mM Tris-HCl (pH 7.5 or 8.0). Substrate and product concentrations were determined by incubating the reactions for the specified period of time with shaking at 250 rpm, extracting 1.0 ml of the aqueous reaction with ethyl acetate and analyzing the extract by gas chromatography-mass spectrometry (GC/MS) described below.
GC/MS was carried out with a Hewlett-Packard model 5890 gas chromatograph equipped with a Hewlett-Packard DB-5 capillary column (inside diameter 0.2 mm by 25 m) and a Hewlett-Packard model 5971 mass selective detector (electron impact ionization 70 eV). The column temperature was programmed from 50 to 325° C. at 10° C./min with a helium flow of 12 cm/s. Temperatures of the injection port and transfer line were 250 and 280° C., respectively.
After indole was completely consumed the reaction mixture was diluted into dimethylformamide (DMF) and the visible spectrum of the resultant blue solution was measured.

[5] = substrate 0.3 mM, indole = 100%

Compound | Oxygen Uptake (indole oxidase [1]; substrate 0.3 mM) | Relative % (oxygen uptake rate) (indole oxidase [1]; [5]) | Relative % (oxygen uptake rate) (Strain WW2 whole cells) | Oxygen Uptake (Strain WW2 whole cells) | other results
Clc1ccc2[nH]ccc2c1 [5-Cl-Indole] | 4 O2 %/min/ODU | 28% |  |  | 
O=C1Nc2ccccc2C1=O [Isatin, 2,3-dioxoindole] | 0 O2 %/min/ODU | 0% |  |  | 
Cc1cc2nc3c(=O)[nH]c(=O)nc-3n(C[C@H](O)[C@H](O)[C@H](O)COP(=O)(O)OP(=O)(O)OC[C@H]3O[C@@H](n4cnc5c(N)ncnc54)[C@H](O)[C@@H]3O)c2cc1C [FAD, flavin adenine dinucleotide] |  |  |  |  | stimulation of activity by cofactor added to the assay [2]: 3 fold
Oc1cccc2[nH]ccc12 [4-OH-Indole] | 2.5 O2 %/min/ODU |  |  |  | Relative % (oxygen uptake rate) (indole oxidase [1]): 17%
O=C(O)CCC(=O)O [Succinate] |  |  |  |  | Oxygen Uptake Rate, Rate 3 h After Re-Addition (Strain WW2): 1.8 O2 %/min/ODU
Nc1ccccc1C(=O)O [Anthranilate, Anthranilic acid] |  |  | <1% | 0.6 O2 %/min/ODU | stimulation of oxygen uptake rate (Strain WW2 whole cells; whole resting cells): no significant stimulation
Cc1cccc2[nH]ccc12 [4-Me-Indole] | 1 O2 %/min/ODU | 7% |  |  | 
Clc1cccc2[nH]ccc12 [4-Cl-Indole] | 0 O2 %/min/ODU | 0% |  |  | 
Oc1c[nH]c2ccccc12 [Indoxyl, 3-hydroxyindole] |  |  | 177% | 20.9 O2 %/min/ODU | increase in oxygen uptake rate (Strain WW2 whole cells; relative to indole): 1.7 fold
Cc1cc2nc3c(=O)[nH]c(=O)nc-3n(C[C@H](O)[C@H](O)[C@H](O)COP(=O)(O)O)c2cc1C [FMN] |  |  |  |  | effect of added cofactor on activity [2]: no effect
c1ccc2occc2c1 [2,3-Benzofuran] | 0 O2 %/min/ODU | 0% | 30% | 3.5 O2 %/min/ODU | 
COc1ccc2[nH]ccc2c1 [5-MeO-Indole] | 1 O2 %/min/ODU |  |  |  | Relative % (oxygen uptake rate) (indole oxidase [1]): 7%
c1ccc2ccccc2c1 [Naphthalene] |  |  | 9% | 1.1 O2 %/min/ODU | activity of the enzyme with the substrate (indole oxidase [1]): very low activity; support of growth as carbon source (words) [3]: did not support growth; support of growth as carbon source (words) ([3]; listed as naphthalene): not to support growth; Relative % (oxygen uptake rate) (Strain WW2 whole cells; listed as naphthalene): 9%
c1ccc2[nH]ccc2c1 [Indole] | 14.5 O2 %/min/ODU | 100% | 100% | 11.8 O2 %/min/ODU | conversion of indole to indigo (indole oxidase [4]; 4.0 mM NADPH as electron donor, from absorption at 610 nm in DMF): 20%; support of growth as carbon source (words) [3]: good carbon source; concentration above which toxic ([3]; liquid culture): exceeded 400 mg/L; Oxygen Uptake Rate, Rate After 4 h Induction with Indole (Strain WW2; induced with indole 0.2 g/l at 16 h growth, before re-addition): 14.4 O2 %/min/ODU and 13.3 O2 %/min/ODU and 14.1 O2 %/min/ODU and 12.1 O2 %/min/ODU; Oxygen Uptake Rate, Rate 3 h After Re-Addition (Strain WW2): 13.8 O2 %/min/ODU
C1=Cc2ccccc2C1 [indene] |  |  |  |  | 2-indanone, single detectable product, share of total ion current (indole oxidase [4]; crude SCF with NADPH, GC/MS): approximately 20%
NC(=O)C1=CN([C@@H]2O[C@H](COP(=O)(O)OP(=O)(O)OC[C@H]3O[C@@H](n4cnc5c(N)ncnc54)[C@H](OP(=O)(O)O)[C@@H]3O)[C@@H](O)[C@H]2O)C=CC1 [NADPH, nicotinamide adenine phosphate dinucleotide] |  |  |  |  | rate of indole removal relative to that observed with NADH (indole oxidase [4]; 4.0 mM NADPH instead of NADH, cell extract 0.57 mg/ml, pH 8): approximately 60%
O=S(=O)([O-])[O-].O=S(=O)([O-])[O-].[Fe+2].[NH4+].[NH4+] [Fe^++, Fe(NH4)2SO4] |  |  |  |  | effect of added cofactor on activity [2]: stimulatory effect
Cc1cccc2cc[nH]c12 [7-Me-Indole] | 12.5 O2 %/min/ODU | 86% | 39% | 4.6 O2 %/min/ODU | 
Fc1ccc2[nH]ccc2c1 [5-F-Indole, 5-fluoroindole] | 13.5 O2 %/min/ODU | 93% | 50% | 5.9 O2 %/min/ODU | 
O=[N+]([O-])c1ccc2[nH]ccc2c1 [5-NO2-Indole] | 0 O2 %/min/ODU | 0% |  |  | 
Cc1c[nH]c2ccccc12 [3-Me-Indole] | 2 O2 %/min/ODU | 14% |  |  | 
Oc1ccc2[nH]ccc2c1 [5-OH-Indole] | 3.5 O2 %/min/ODU | 24% |  |  | 
Brc1ccc2[nH]ccc2c1 [5-Br-Indole] | 0 O2 %/min/ODU | 0% |  |  | 
c1ccc2sccc2c1 [Thianaphthene] | 1 O2 %/min/ODU | 7% | 26% | 3.1 O2 %/min/ODU | 
Clc1ccc2cc[nH]c2c1 [6-Cl-Indole] | 7 O2 %/min/ODU | 48% |  |  | 
